Results published in patent US4400387A, “Indolizine derivatives and uses in therapeutics” (S. A. Labaz-Sanofi N.V., priority 1979, dated 1983).

How the values were obtained:
[1] = molecular target: T1, xanthine oxidase found in milk (Bos taurus, UniProt P80457); test: Inhibition of the action of xanthine oxidase in vitro (U.V. spectrophotometry, formation of uric acid from hypoxanthine); assay type: biochemical; settings: compound at 10^-5 M; hypoxanthine substrate, pH 7.4, 37° C.
T1 construct: purchased
Procedure: This trial was performed with xanthine oxidase found in milk. The activity of the enzymatic preparation was measured by following the formation of uric acid starting from hypoxanthine in the presence of oxygen and of a phosphate buffer solution.
(§1) The experimental procedure described hereunder was used:
In the absorption cell, the following solutions were introduced:
1.5 ml of a 0.1 molar phosphate buffer solution (pH=7.4) saturated with oxygen.
0.3 ml of a 1 m molar solution of ethylene diamine tetraacetate.
0.01 ml of a commercial xanthine oxidase solution having a known concentration in enzyme.
0.01 ml of a 3.10^-3 molar ethanolic solution of the compound to be tested.
The contents of the absorption cell were allowed to incubate for 2 minutes and then the enzymatic reaction was started by adding 0.3 ml of a 10^-3 molar solution of hypoxanthine to the absorption cell. The reaction was followed by spectrophotometric recording of the oxidation rate of hypoxanthine at 293 nm and at 37° C. The optical density was automatically registered. The same measurements were performed with a control solution containing all the ingredients referred to above except the compound being tested.
In this way, a curve representing the variation in optical density in comparison with time was obtained with the solution containing the inhibitor on the one hand and devoid of inhibitor on the other. The slope of both curves was measured and expressed in the number of mols of uric acid formed in one minute. Thus, it was possible to compare the values obtained and calculate, in percent, the inhibition of the activity of xanthine oxidase provoked by a compound of the invention.

[2] = Uricosuric action in humans after a single oral dose; assay type: in vivo; settings: single oral dose 300 mg
Procedure: The uricosuric action was determined in humans after a single dose of 300 mg of 2-ethyl-3-(3,5-dibromo-4-hydroxy-benzoyl)-indolizine by oral route.

[3] = molecular target: T2, adenosine deaminase obtained from calf intestine (Bos taurus, UniProt P56658); test: Inhibition of the action of adenosine deaminase in vitro (decrease in absorbance at 265 nm); assay type: biochemical; settings: pH 7.4, 30° C.
T2 construct: purchased
T2 sequence (P56658 1-363): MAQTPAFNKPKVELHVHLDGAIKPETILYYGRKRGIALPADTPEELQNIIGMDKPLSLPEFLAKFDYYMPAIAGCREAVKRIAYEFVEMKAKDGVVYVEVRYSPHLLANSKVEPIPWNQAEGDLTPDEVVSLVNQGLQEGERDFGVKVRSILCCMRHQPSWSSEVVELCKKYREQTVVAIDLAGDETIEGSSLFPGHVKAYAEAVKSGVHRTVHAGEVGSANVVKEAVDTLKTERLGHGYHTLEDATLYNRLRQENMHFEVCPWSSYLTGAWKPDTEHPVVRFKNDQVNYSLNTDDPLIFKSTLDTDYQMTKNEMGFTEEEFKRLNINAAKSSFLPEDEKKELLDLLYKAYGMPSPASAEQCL
Procedure: This test was performed with adenosine deaminase obtained from calf intestine.
as §1
In the absorption cell the following solutions were introduced:
2.7 ml of a 0.1 molar phosphate buffer solution (pH=7.4)
0.3 ml of a 10^-4 or 5.10^-4 molar solution of adenosine in the phosphate buffer solution (final concentration in adenosine: 10^-5 or 5.10^-5 mol) 0.01 ml of a 3.10^-3 molar ethanolic solution of the compound to be studied (about 10 milliunits)
The contents of the absorption cell were allowed to incubate for 2 minutes and then the enzymatic reaction was started by adding 0.03 ml of a commercial adenosine deaminase solution having a known concentration in enzyme. The reaction was performed at 30° C. and followed by spectrophotometric recording of the decrease in absorbance at 265 nm due to the transformation of adenosine into inosine by means of adenosine deaminase. This enzymatic reaction can be represented by the following equation: [formula]
The same measurements were performed with a control solution containing all the ingredients referred to above except the compound being studied. Curves were then plotted representing the decrease in absorbance in comparison with time obtained on the one hand with the solution containing the inhibitor and on the other with the control solution.
The slope of both curves was measured and expressed in the number of mols of inosine formed in one minute. After that, the percent of inhibition of the activity of adenosine deaminase provoked by a compound of the invention was calculated.

[4] = molecular target: T3, adenosine deaminase in ascites cells (Krebs II) (Mus musculus, UniProt P03958); test: Inhibition of adenosine deamination in intact ascites cells (14C adenosine); assay type: cell-based; settings: 14C adenosine 5.10^-5 M, read-out: concentration at which deamination of adenosine by ascites cells was 50% inhibited (converted)
T3 construct: tested in intact cells by incubating ascites cells (Krebs II); endogenous in cells; host or cells: Krebs II ascites cells
T3 sequence (P03958 1-352): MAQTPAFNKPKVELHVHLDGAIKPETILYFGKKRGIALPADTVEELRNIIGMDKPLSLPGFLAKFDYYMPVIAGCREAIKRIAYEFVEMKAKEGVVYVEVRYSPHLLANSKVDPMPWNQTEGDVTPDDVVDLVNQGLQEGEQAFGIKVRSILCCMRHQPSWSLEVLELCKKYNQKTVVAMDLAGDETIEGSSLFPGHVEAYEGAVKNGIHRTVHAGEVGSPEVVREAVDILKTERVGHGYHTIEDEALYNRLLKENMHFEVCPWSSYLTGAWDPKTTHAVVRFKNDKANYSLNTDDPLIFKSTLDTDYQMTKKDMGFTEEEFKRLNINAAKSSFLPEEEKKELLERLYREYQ
Procedure: The inhibition of the action of adenosine deaminase by these two above-cited compounds has also been tested in intact cells by incubating ascites cells (Krebs II) in the presence of ^14 C adenosine at a concentration of 5.10^-5 M and by measuring the formation of inosine and hypoxanthine ^14 C. The deamination of adenosine due to the ascites cells was 50% inhibited in the presence of 2.10^-6 M of 1-bromo-2-phenyl-3-(3-bromo-4-hydroxy-benzoyl)-indolizine and of 10^-6 M of 1-bromo-2-(4-fluoro-phenyl)-3-(3-bromo-4-hydroxy-benzoyl)-indolizine.

[5] = Acute toxicity tests in mice; assay type: in vivo; settings: 20 mg/kg by intravenous route
Procedure: Acute toxicity tests were performed in mice with compounds of the invention.

[6] = molecular target: T2, adenosine deaminase obtained from calf intestine; test: Inhibition of the action of adenosine deaminase in vitro (decrease in absorbance at 265 nm); assay type: biochemical; settings: compound at a concentration of 10^-6 M
[7] = system: HSV-1 (KOS); test: Herpetic skin lesions and mortality of nu/nu mice inoculated with HSV-1 (KOS), topical Ara-A and/or compound; assay type: in vivo; settings: topical 1% in dimethylsulfoxide, 4 times daily days 0-4
Procedure: This test was carried out in order to determine the effects of adenine arabinoside (Ara-A) and compounds of the invention on the incidence of herpetic skin lesions and mortality of nu/nu mice inoculated with HSV-1 (KOS). Athymic nude (nu/nu) mice, 20 to 25 days old, were inoculated intracutaneously with HSV-1 (KOS) at about 10^4.5 PFU (plaque-forming units) per mouse. Ara-A and/or a compound of the invention were applied topically at 1% in dimethylsulfoxide, 4 times daily on days 0, 1, 2, 3 and 4. The number of mice with epidermal lesion (necrosis of at least 5 to 10 mm long) per total number of mice alive was registered.

[8] = molecular target: T1, xanthine oxidase found in milk; test: Inhibition of the action of xanthine oxidase in vitro (U.V. spectrophotometry, formation of uric acid from hypoxanthine); assay type: biochemical; settings: compound at a concentration of 10^-6 M

T1 sequence (P80457 whole entry): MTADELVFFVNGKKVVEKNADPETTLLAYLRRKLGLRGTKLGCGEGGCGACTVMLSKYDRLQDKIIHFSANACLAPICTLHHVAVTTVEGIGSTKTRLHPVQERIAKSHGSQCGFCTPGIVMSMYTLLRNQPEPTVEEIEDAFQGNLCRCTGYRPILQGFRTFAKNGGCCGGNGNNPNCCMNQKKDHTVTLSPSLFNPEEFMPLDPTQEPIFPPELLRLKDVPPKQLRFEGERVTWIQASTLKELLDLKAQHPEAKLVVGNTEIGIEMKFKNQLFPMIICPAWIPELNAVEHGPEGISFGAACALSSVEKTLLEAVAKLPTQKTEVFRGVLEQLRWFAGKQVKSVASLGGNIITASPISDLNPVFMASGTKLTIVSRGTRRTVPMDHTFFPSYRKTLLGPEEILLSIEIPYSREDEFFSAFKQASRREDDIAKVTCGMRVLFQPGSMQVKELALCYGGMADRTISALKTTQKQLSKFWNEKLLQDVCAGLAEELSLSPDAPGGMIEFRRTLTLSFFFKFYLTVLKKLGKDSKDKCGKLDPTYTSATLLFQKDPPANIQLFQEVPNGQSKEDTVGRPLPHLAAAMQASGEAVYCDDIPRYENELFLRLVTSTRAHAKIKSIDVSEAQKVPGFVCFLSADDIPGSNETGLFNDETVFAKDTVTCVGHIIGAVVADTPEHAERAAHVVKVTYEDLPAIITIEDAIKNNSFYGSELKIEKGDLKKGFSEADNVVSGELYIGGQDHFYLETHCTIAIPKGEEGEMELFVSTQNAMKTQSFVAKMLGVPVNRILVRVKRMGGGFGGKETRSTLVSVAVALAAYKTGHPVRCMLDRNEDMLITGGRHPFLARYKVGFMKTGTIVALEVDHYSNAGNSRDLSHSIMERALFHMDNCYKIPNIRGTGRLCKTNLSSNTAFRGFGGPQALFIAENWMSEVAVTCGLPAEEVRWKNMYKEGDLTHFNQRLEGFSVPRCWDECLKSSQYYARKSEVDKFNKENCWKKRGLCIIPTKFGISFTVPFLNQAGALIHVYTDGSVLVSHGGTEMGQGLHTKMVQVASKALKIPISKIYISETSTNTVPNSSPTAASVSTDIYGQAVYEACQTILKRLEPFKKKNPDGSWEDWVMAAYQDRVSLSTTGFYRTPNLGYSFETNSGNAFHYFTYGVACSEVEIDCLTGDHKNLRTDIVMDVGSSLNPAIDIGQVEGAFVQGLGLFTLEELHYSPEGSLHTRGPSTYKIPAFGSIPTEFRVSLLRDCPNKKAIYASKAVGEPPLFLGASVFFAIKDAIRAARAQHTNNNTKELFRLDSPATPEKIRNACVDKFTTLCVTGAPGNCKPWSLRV

Question: Which inhibition at 10 µM [1] does the source give for `CCc1cc2ccccn2c1C(=O)c1cc(Br)c(O)c(Br)c1` [Ethyl H Br Br, 2-Ethyl-3-(3,5-dibromo-4-hydroxy-benzoyl)-indolizine] here?
Answer: 98%

Question: And the Tmax ([2]; human, plasma, read-out: time of highest plasmatic level)?
Answer: 5 h

Question: And the “mean increase of urinary excretion of uric acid in 24 hours” value ([2]; 24 hours)?
Answer: 22%

Question: And the lowering of uricemia ([2]; by the 5th hour)?
Answer: 9%

Question: What about the “increase of urinary excretion of uric acid” value ([2]; period between 12th and 24th hour) of the same compound?
Answer: 40%

Question: For `O=C(c1ccc(O)c(Br)c1)c1c(-c2ccc(F)cc2)c(Br)c2ccccn12` [4-Fluoro-phenyl Br Br H, 1-Bromo-2-(4-fluoro-phenyl)-3-(3-bromo-4-hydroxy-benzoyl)-indolizine], which “Inhibition of the action of adenosine deaminase in vitro (in %) At 5.10^-5 M adenosine” value (“Inhibition … (in %) At 5.10^-5 M adenosine” for short) [3] is on record?
Answer: 94%

Question: And the “Inhibition of the action of adenosine deaminase in vitro (in %) At 10^-5 M adenosine” value (from here on “Inhibition … (in %) At 10^-5 M adenosine”) [3]?
Answer: 100%

Question: What about the IC50 [4] of the same compound?
Answer: 1000 nM

Question: What about the “deaths after 14 days” value [5] of the same compound?
Answer: on death was registered

Question: What about the inhibition at 1 µM [6] of the same compound?
Answer: 86%

Question: Which “Inhibition … (in %) At 5.10^-5 M adenosine” value [3] does the source give for `O=C(c1ccc(O)c(Br)c1)c1c(-c2ccccc2)c(Br)c2ccccn12` [Phenyl Br Br H, 1-Bromo-2-phenyl-3-(3-bromo-4-hydroxy-benzoyl)-indolizine] here?
Answer: 88%

Question: What about the “Inhibition … (in %) At 10^-5 M adenosine” value [3] of the same compound?
Answer: 100%

Question: What about the IC50 [4] of the same compound?
Answer: 2000 nM

Question: What about the “effect on the antiviral (anti-herpetic) activity of adenine arabinoside (Ara-A)” value [7] of the same compound?
Answer: potentiates the antiviral activity of adenine arabinoside

Question: And the “deaths after 14 days” value [5]?
Answer: on death was registered

Question: And the inhibition at 1 µM [6]?
Answer: 80%

Question: Which inhibition at 10 µM [1] does the source give for `CC(C)c1cc2ccccn2c1C(=O)c1cc(Br)c(O)c(Br)c1` [Isopropyl H Br Br, 2-Isopropyl-3-(3,5-dibromo-4-hydroxy-benzoyl)-indolizine] here?
Answer: 99%

Question: What about the inhibition at 1 µM [8] of the same compound?
Answer: 84%

Question: For `O=C(c1ccc(O)c(Cl)c1)c1c(-c2cccc(Br)c2)cc2ccccn12` [3-Bromo-phenyl H H Cl, 2-(3-Bromo-phenyl)-3-(3-chloro-4-hydroxy-benzoyl)-indolizine], which inhibition at 10 µM [1] is on record?
Answer: 23%

Question: For `CC(C)c1cc2ccccn2c1C(=O)c1cc(Cl)c(O)c(Cl)c1` [Isopropyl H Cl Cl, 2-Isopropyl-3-(3,5-dichloro-4-hydroxy-benzoyl)-indolizine], which inhibition at 10 µM [1] is on record?
Answer: 96%

Question: What about the “Inhibition … (in %) At 5.10^-5 M adenosine” value [3] of the same compound?
Answer: 76%

Question: For `CCCc1c(Br)c2ccccn2c1C(=O)c1ccc(O)c(Br)c1` [n-Propyl Br Br H, 1-Bromo-2-n-propyl-3-(3-bromo-4-hydroxy-benzoyl)-indolizine], which inhibition at 10 µM [1] is on record?
Answer: 97%

Question: Which inhibition at 10 µM [1] does the source give for `CCc1cc2ccccn2c1C(=O)c1ccc(O)c(Cl)c1` [Ethyl H H Cl, 2-Ethyl-3-(3-chloro-4-hydroxy-benzoyl)-indolizine] here?
Answer: 87%

Question: With `CCc1c(Br)c2ccccn2c1C(=O)c1ccc(O)c(Br)c1` [Ethyl Br Br H, 1-Bromo-2-ethyl-3-(3-bromo-4-hydroxy-benzoyl)-indolizine] as the compound, how does the inhibition at 10 µM [1] read?
Answer: 93%

Question: For `Cc1cc2ccccn2c1C(=O)c1cc(Cl)c(O)c(Cl)c1` [Methyl H Cl Cl, 2-Methyl-3-(3,5-dichloro-4-hydroxy-benzoyl)-indolizine], which inhibition at 10 µM [1] is on record?
Answer: 84%

Question: Which inhibition at 10 µM [1] does the source give for `O=C(c1cc(Br)c(O)c(Br)c1)c1c(-c2ccccc2)c(Br)c2ccccn12` [Phenyl Br Br Br, 1-Bromo-2-phenyl-3-(3,5-dibromo-4-hydroxy-benzoyl)-indolizine] here?
Answer: 48%

Question: And the “Inhibition … (in %) At 5.10^-5 M adenosine” value [3]?
Answer: 22%

Question: What about the “Inhibition … (in %) At 10^-5 M adenosine” value [3] of the same compound?
Answer: 53%

Question: For `Cc1ccc(-c2c(Br)c3ccccn3c2C(=O)c2ccc(O)cc2)cc1` [4-Methyl-phenyl Br H H, 1-Bromo-2-(4-methyl-phenyl)-3-(4-hydroxy-benzoyl)-indolizine], which inhibition at 10 µM [1] is on record?
Answer: 48%

Question: With `CCc1cc2ccccn2c1C(=O)c1cc(Cl)c(O)c(Cl)c1` [Ethyl H Cl Cl, 2-Ethyl-3-(3,5-dichloro-4-hydroxy-benzoyl)-indolizine] as the compound, how does the inhibition at 10 µM [1] read?
Answer: 98%

Question: For `CC(C)c1cc2ccccn2c1C(=O)c1ccc(O)c(Br)c1` [Isopropyl H H Br, 2-Isopropyl-3-(3-bromo-4-hydroxy-benzoyl)-indolizine], which inhibition at 10 µM [1] is on record?
Answer: 94%

Question: Which inhibition at 10 µM [1] does the source give for `Cc1cc2ccccn2c1C(=O)c1cc(Br)c(O)c(Br)c1` [Methyl H Br Br, 2-Methyl-3-(3,5-dibromo-4-hydroxybenzoyl)-indolizine] here?
Answer: 91%

Question: For `O=C(c1ccc(O)c(Br)c1)c1c(-c2ccc(Br)cc2)cc2ccccn12` [4-Bromo-phenyl H H Br, 2-(4-Bromo-phenyl)-3-(3-bromo-4-hydroxy-benzoyl)-indolizine], which inhibition at 10 µM [1] is on record?
Answer: 22%
